Here are results for 1 molecule from patent US9974860B2, “Aqueous solution formulation and method for manufacturing same” (Akiko ITAI, priority 2013, dated 2018).

Where two headings read alike, the source gives them in different places.

Series [1] in a line: Pharmacokinetic study, intravenous administration of aqueous solution of Working Example 1. In kind it is in vivo, Sprague-Daweley IGS rats. The note with it: i.v.; for C0 / AUC(0-t): Sprague-Dawley IGS, rat, blood, iv, average of three; for AUC(0-t): read-out: AUC0-24. The text has this: The aqueous solution obtained in Working Example 1 was filtered and sterilized with Millex (registered trademark)-GV (0.22 μm; available from Millipore Japan Corporation/Merck Millipore Corporation) and intravenously administered to female and male Sprague-Daweley IGS rats (6 weeks old) to investigate the pharmacokinetics of Compound (I).
As groups of animals, female and male Sprague-Daweley IGS rats (available from Charles River Laboratories Japan, Inc.) were used. The rats were 6 weeks old. The male rats had body weights of 166 to 189 g, and the female rats had body weights of 123 to 145 g.
The rats were quarantined and acclimated in a SPF (specific pathogen free) laboratory for animal experimentations for seven days, and their states of health were simultaneously observed. Each of the rats was kept in a sterilized stainless cage. In the SPF laboratory for animal experimentations, the temperature was maintained at 20.6 to 22.5° C., and the relative humidity was maintained at 44 to 60%. In the SPF laboratory for animal experimentations, ventilation was provided fifteen times per hour. Regarding illumination in the SPF laboratory for animal experimentations, a bright state and a dark state were switched every 12 hours.
As foods for rats, a standard dry food in stick-shape (whose components were already analyzed) was used. As drinking water, tap water which was confirmed to be within a range of the reference value was used, and the rats were allowed to freely drink it.
The above-mentioned quarantined rats were randomly divided into the following three groups (four female rats and four male rats per group) by weight.
(1) Group 1: the aqueous solution obtained in Working Example 1 was administered in a dose of 1 mL/kg.
(2) Group 2: the aqueous solution obtained in Working Example 1 was administered in a dose of 2 mL/kg.
(3) Group 3: the aqueous solution obtained in Working Example 1 was administered in a dose of 3 mL/kg.
After the quarantined rats fasted overnight (for about 16 hours), the aqueous solution obtained in Working Example 1 was intravenously administered. Blood was collected 0.083 hours, 0.25 hours, 0.5 hours, 1 hour, 4 hours, and 24 hours after the administration, and the concentration of Compound (I) in the blood was measured. The maximum blood concentration, C0 (ng/mL), just after the composition for injection was intravenously administered, and the area under the blood concentration-time curve of Compound (I) over 0 to 24 hours after the administration, AUC0-24 (ng·h/mL), were calculated from the measured concentrations of Compound (I) in the blood at the collection times.

For series [2] the following is noted: cited from earlier work.
Setting [3] is: female rats, aqueous solution of Working Example 1, dose of Compound (I) 1 mg/kg (Group 1).
The mark [4] stands for this setting: female rats, aqueous solution of Working Example 1, dose of Compound (I) 2 mg/kg (Group 2).
Where [5] appears, read: female rats, aqueous solution of Working Example 1, dose of Compound (I) 3 mg/kg (Group 3).
Setting [6] is: male rats, aqueous solution of Working Example 1, dose of Compound (I) 1 mg/kg (Group 1).
[7] abbreviates: male rats, aqueous solution of Working Example 1, dose of Compound (I) 2 mg/kg (Group 2).
Setting [8] is: male rats, aqueous solution of Working Example 1, dose of Compound (I) 3 mg/kg (Group 3).

`O=C(Nc1cc(C(F)(F)F)cc(C(F)(F)F)c1)c1cc(Cl)ccc1O` [Compound (I), N-[3,5-bis(trifluoromethyl)phenyl]-5-chloro-2-hydroxybenzamide]: the C0 in series [1] (setting [3]) was found to be 2150 ng/mL; in series [1] (setting [4]), 2820 ng/mL; in series [1] (setting [5]) it was 5250 ng/mL; in series [1] (setting [6]), 1380 ng/mL; in series [1] (setting [7]), 3210 ng/mL; in series [1] (setting [8]), 4850 ng/mL. Besides, the AUC(0-t) is 388 ng·h/mL in series [1] (setting [3]); 540 ng·h/mL in series [1] (setting [4]); 981 ng·h/mL in series [1] (setting [5]); 304 ng·h/mL in series [1] (setting [6]); 620 ng·h/mL in series [1] (setting [7]); 1260 ng·h/mL in series [1] (setting [8]). Further, the “Exposure of Compound (I) in vivo” value in series [1] (rats, aqueous solution of Working Example 1, 1 to 3 mL/kg) is “exposed in a dose-dependent manner and in a sufficient amount”. In series [2], the Water solubility result is recorded as “poor water solubility”.
